For data set [1], the system named is HCV replicon cells Huh 9B. Put plainly: HCV replicon luciferase assay. The following applies: Huh 9B replicon cells, 72 h incubation, luciferase readout. The class given is cell-based, hepatitis C virus. How it is done: (§1) HCV replicon cells Huh 9B (ReBlikon), containing the firefly luciferase—ubiquitin—neomycin phosphotransferase fusion protein and EMCV-IRES driven HCV polyprotein with cell culture adaptive mutations.
(§2) Cells were cultured at 37° C. in a 5% CO2 environment and split twice a week on seeding at 2×10E6 cells/flask on day 1 and 1×10E6 3 days later. Some 0.25 mg/ml G418 was added to the culture medium (125 ul per 25 ml) but not the assay medium.
(§3) The culture medium consisted of DMEM with […] glucose and glutamax (Gibco 61965-026) supplemented with 1× non-essential amino acids, penicillin (100 IU/ml)/streptomycin (100 μg/ml), FCS (10%, 50 ml) and 1 mg/ml G418 (Invitrogen cat no 10131-027) & 10% foetal calf serum.
(§4) A flask of cells was trypsinised and a cell count carried out. Cells were diluted to 100,000 cells/ml and 100 μl of this used to seed one opaque white 96-well plate (for the replicon assay) and one flat-bottomed clear plate (for the tox assay) for every seven compounds to be tested for IC50. Wells G12 and H12 were left empty in the clear plate as the blank. Plates were then incubated at 37° C. in a 5% CO2 environment for 24 h.
(§5) On the following day compound dilutions are made up in medium at twice their desired final concentration in a clear round bottomed plate. All dilutions have a final DMSO concentration of 1%.
(§6) Once the dilution plate had been made up, controls and compounds were transferred to the assay plate (containing the cells) at 100 μl /well in duplicate plates.
(§7) Exception: in the white (replicon) plate, no compound was added to wells A1 and A2 and 100 μl of 1% DMSO was added to these instead. In the clear (Tox) plate, wells E12 & F12 only contained the DMSO control. Plates were then incubated at 37° C. with 5% CO2 for 72 h.
At the end of the incubation time, the cells in the white plate were harvested by washing with 200 μl/well of warn (37° C.) PBS and lysed with 20 μl cell culture lysis buffer (Promega). After 5 min incubation @ RT, luciferin solution was added to the luciferase assay buffer (LARB at 200 μl per 10 ml LARB. The M injector of the microplate luminometer (Lmax, Molecular Devices) was primed with […] injections. Plate were inserted into the luminometer and 100 μl luciferase assay reagent was added by the injector on the luminometer. The signal was measured using a 1 second delay followed by a 4 second measurement programme. The IC50, the concentration of the drug required for reducing the replicon level by 50% in relation to the untreated cell control value, can be calculated from the plot of the percentage reduction of the luciferase activity vs. drug concentration.

Data set [2] concerns HCV replicon cells Huh 9B. It counts as cell-based. The following applies: Huh 9B replicon cells, 72 h incubation, methylene blue absorbance at 620 nm. The protocol: as §1, §2, §3, §4, §5, §6, §7
The clear plate was stained with 100 μl 0.5% methylene blue in 50% ethanol at RT for 1 h, followed by solvation of the absorbed methylene blue in 100 μl per well of 1% lauroylsarcosine. Absorbance of the plate was measured on a microplate spectrophotometer (Molecular Devices) and the absorbance for each concentration of compound expressed as a proportion of the relative DMSO control. The TD50, the concentration of drug required to reduce the total cell area by 50% relative to the DMSO controls can be calculated by plotting the absorbance at 620 nm vs drug concentration.

Molecules are shown by their SMILES. A value given as a limit tells only on which side of the number the result lay.

Regarding `c1nc(Nc2ccc(N3CCOCC3)cc2)c2cc(-c3ccc(OCCCN4CCOCC4)cc3)ccc2n1` [Example 2, (4-Morpholin-4-yl-phenyl)-{6-[4-(3-morpholin-4-yl-propoxy)-phenyl]-quinazolin-4-yl}-amine], in data set [1] (Hepatitis C virus), the IC50 (as a rule, the midpoint of a concentration-inhibition curve) is less than 1000 nM. In data set [2], the “Replicon TD5O” value was “** (>10 uM = **)”.

Consider `COc1ccc(-c2ccc3ncnc(Nc4ccc(N5CCOCC5)cc4)c3c2)cc1OC` [Example 3, [6-(3,4-Dimethoxy-phenyl)-quinazolin-4-yl]-(4-morpholin-4-yl-phenyl)-amine], for which, in data set [1] (Hepatitis C virus), the IC50 was less than 1000 nM. The “Replicon TD5O” value in data set [2] is reported as “** (>10 uM = **)”.

Turning to `c1nc(Nc2ccc(N3CCOCC3)cc2)c2cc(-c3ccc(OCCN4CCOCC4)cc3)ccc2n1` [Example 1, {6-[4-(2-Morpholin-4-yl-ethoxy)-phenyl]-quinazolin-4-yl}-(4-morpholin-4-yl-phenyl)-amine], the IC50 in data set [1] (Hepatitis C virus) is less than 5000 nM. Also, in data set [2], the “Replicon TD5O” value is “*** (>25 uM = ***)”.

`CCOc1ccc(-c2ccc3ncnc(Nc4ccc(N5CCOCC5)cc4)c3c2)cc1OCC` [Example 4] yielded an IC50 in data set [1] of less than 1000 nM. The “Replicon TD5O” value in data set [2] is “** (>10 uM = **)”.

On to `Fc1cc(-c2ccc3ncnc(Nc4ccc(N5CCOCC5)cc4)c3c2)ccc1OCCN1CCOCC1` [Example 5, {6-[3-Fluoro-4-(2-morpholin-4-yl-ethoxy)-phenyl]-quinazoline-4-yl}-(4-morpholin-4-yl-phenyl)-amine], for which the IC50 in data set [1] (Hepatitis C virus) is less than 1000 nM. Also, the “Replicon TD5O” value in data set [2] was “*** (>25 uM = ***)”.

These data come from patent publication US20080267914A1, “Chemical Compounds” (priority 2005, published 2008).
